The values below come from article PMC9649612, “Molecular docking and biochemical validation of (-)-syringaresinol-4-O-β-D-apiofuranosyl-(1→2)-β-D-glucopyranoside binding to an allosteric site in monoamine transporters” (Frontiers in Pharmacology, 2022).

A value given as a limit tells only on which side of the number the result lay.

The target in assay [1] is T1, hSERT S438T (S1 site mutant) (Homo sapiens, UniProt P31645, S438T).
T1 construct: expressed in transfected cells; host or cells: HeLa
Put plainly: APP+ transport in HeLa cells expressing hSERT mutant S438T. Particulars: 2 μM APP+ 5 min, intact HeLa cells, read-out: SAG IC50 for transport. Type of assay: cell-based. How it is done:
(§1) The mutants used for this study were constructed in the WT background carried by the expression plasmids for hSERT, hDAT, or hNET under the control of CMV promotor in pcDNA3.1 vector, respectively. All mutants were generated using the Mut Express II Fast Mutagenesis Kit (Vazyme) and confirmed by full-length DNA sequencing.
(§2) HeLa cells were cultured in Dulbecco’s Modified Eagle’s Medium supplemented with 10% fetal bovine serum, 100 units/ml penicillin, and 100 μg/ml streptomycin at 37°C in a humidified 5% CO2 incubator. Cells were plated in a 6-well culture plate and grown overnight. Cells at ∼70% confluence were transfected with hSERT, hDAT, or hNET cDNA in pcDNA3.1 by lipofectamine 2000. […] After grown for additional 12–16 h, the cells were assayed for APP^+ or ASP^+ fluorescence image acquisition.
(§3) The cells expressing WT or mutants of hSERT, hDAT, or hNET were wet mounted on polylysine coated glass slides in 12-well plates and applied for the indicated treatments. […] The extent of APP^+ accumulated in the cells was determined by confocal imaging analysis. ASP^+ binding to SERT in the cell membrane was measured with digitonin-permeabilized cells ([Li M. et al., 2022a]). […] After removing excess ASP^+ by rapid washing three times, ASP^+ binding was determined by confocal imaging analysis.
(§4) Images were analyzed using Zen Blue software. […]

Assay [2] concerns the target T2, hSERT I172F (S1 site mutant) (Homo sapiens, UniProt P31645, I172F).
T2 construct: expressed in transfected cells; host or cells: HeLa
Put plainly: APP+ transport in HeLa cells expressing hSERT mutant I172F. Type of assay: cell-based. Particulars: 2 μM APP+ 5 min, intact HeLa cells, read-out: SAG IC50 for transport. The method, then:
as §1, §2, §3, §4

Assay [3] addresses T3, hDAT R544G (S2 site mutant) (Homo sapiens, UniProt Q01959, R544G).
T3 construct: expressed in transfected cells; host or cells: HeLa
Put plainly: APP+ transport in HeLa cells expressing hDAT mutant R544G. It is filed as cell-based. How it is done: as §1, §2, §3, §4

Assay [4] deals with T4, hNET L563A (S2 site mutant) (Homo sapiens, UniProt P23975, L563A).
T4 construct: expressed in transfected cells; host or cells: HeLa
T4 sequence (P23975 whole entry L563A): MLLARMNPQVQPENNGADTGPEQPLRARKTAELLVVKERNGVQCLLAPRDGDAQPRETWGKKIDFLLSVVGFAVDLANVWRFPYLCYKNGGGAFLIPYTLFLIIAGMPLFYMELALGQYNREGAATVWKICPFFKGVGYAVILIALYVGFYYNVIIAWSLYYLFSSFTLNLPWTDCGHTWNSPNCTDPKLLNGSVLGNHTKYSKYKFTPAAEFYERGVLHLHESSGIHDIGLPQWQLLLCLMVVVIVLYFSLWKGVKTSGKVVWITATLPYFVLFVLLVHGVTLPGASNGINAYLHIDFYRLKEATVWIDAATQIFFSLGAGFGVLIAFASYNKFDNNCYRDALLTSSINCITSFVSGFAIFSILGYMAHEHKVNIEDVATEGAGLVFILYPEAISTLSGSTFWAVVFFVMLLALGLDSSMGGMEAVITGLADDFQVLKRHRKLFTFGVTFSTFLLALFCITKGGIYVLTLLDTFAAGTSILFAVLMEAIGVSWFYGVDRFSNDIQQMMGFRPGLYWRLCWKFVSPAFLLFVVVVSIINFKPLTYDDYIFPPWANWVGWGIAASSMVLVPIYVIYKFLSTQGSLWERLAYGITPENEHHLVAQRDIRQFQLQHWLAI
Put plainly: APP+ transport in HeLa cells expressing hNET mutant L563A. Type of assay: cell-based. Particulars: intact HeLa cells, read-out: SAG IC50. How it is done: as §1, §2, §3, §4

The target in assay [5] is T5, hDAT T566A (S2 site mutant) (Homo sapiens, UniProt Q01959, T566A).
T5 construct: expressed in transfected cells; host or cells: HeLa
T5 sequence (Q01959 whole entry T566A): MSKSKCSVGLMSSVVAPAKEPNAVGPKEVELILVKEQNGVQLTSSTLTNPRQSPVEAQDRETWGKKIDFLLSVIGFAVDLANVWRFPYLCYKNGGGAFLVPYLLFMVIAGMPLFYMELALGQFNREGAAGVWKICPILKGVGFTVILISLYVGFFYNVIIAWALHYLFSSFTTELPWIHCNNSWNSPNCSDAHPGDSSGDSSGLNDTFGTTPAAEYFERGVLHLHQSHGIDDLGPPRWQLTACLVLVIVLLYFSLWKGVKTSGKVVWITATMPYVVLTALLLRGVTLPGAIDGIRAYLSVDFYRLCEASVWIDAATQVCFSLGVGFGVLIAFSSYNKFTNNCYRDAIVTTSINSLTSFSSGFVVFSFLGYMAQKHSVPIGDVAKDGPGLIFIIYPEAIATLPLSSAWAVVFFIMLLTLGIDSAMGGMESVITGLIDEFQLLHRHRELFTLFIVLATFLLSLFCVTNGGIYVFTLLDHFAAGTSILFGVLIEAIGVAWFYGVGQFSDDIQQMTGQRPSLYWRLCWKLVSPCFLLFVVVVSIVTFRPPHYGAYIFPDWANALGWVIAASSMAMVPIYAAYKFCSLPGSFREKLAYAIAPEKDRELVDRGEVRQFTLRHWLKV
Description: APP+ transport in HeLa cells expressing hDAT mutant T566A. Type of assay: cell-based. How it is done: as §1, §2, §3, §4

The target in assay [6] is T6, hDAT A480G (S2 site mutant) (Homo sapiens, UniProt Q01959, A480G).
T6 construct: expressed in transfected cells; host or cells: HeLa
T6 sequence (Q01959 whole entry A480G): as the sequence (Q01959 whole entry T566A) above, with A480G, A566T counted along it
Description: APP+ transport in HeLa cells expressing hDAT mutant A480G. It is filed as cell-based. Particulars: intact HeLa cells, read-out: SAG IC50. How it is done: as §1, §2, §3, §4

The target in assay [7] is T7, WT-hSERT (Homo sapiens, UniProt P31645).
T7 construct: expressed in transfected cells; host or cells: HeLa (ATCC CCL-2), transient, pcDNA3.1
Description: ASP+ binding in digitonin-permeabilized HeLa cells expressing WT-hSERT. The note with it: 10 μM ASP+ 5 min, 25 μg/ml digitonin-permeabilized HeLa cells, read-out: SAG IC50 for binding. How it is done: (§5) HeLa cells were cultured in Dulbecco’s Modified Eagle’s Medium supplemented with 10% fetal bovine serum, 100 units/ml penicillin, and 100 μg/ml streptomycin at 37°C in a humidified 5% CO2 incubator. Cells were plated in a 6-well culture plate and grown overnight. Cells at ∼70% confluence were transfected with hSERT, hDAT, or hNET cDNA in pcDNA3.1 by lipofectamine 2000. Transfected cells were incubated for 24 h at 37°C with 5% CO2 and then transferred into a 12-well plate placed with polylysine coated slides. After grown for additional 12–16 h, the cells were assayed for APP^+ or ASP^+ fluorescence image acquisition.
as §3
(§6) Images were analyzed using Zen Blue software.
(§7) Nonlinear regression fits of experimental and calculated data were performed with Origin (Origin Lab). […]

For assay [8], the target named is T7, WT-hSERT. Description: APP+ transport (uptake) in HeLa cells expressing WT-hSERT. It is filed as cell-based. The note with it: 2 μM APP+ 5 min, SAG added 5 min prior, intact HeLa cells. How it is done:
as §5, §3, §6, §7

For assay [9], the target named is T8, hSERT P561G (S2 site mutant) (Homo sapiens, UniProt P31645, P561G).
T8 construct: expressed in transfected cells; host or cells: HeLa (ATCC CCL-2), transient, pcDNA3.1
Description: ASP+ binding in digitonin-permeabilized HeLa cells expressing hSERT P561G. Particulars: 10 μM ASP+, read-out: SAG IC50 for binding. How it is done: as §1, §2, §3, §4

Assay [10] deals with T9, hNET A477G (S2 site mutant) (Homo sapiens, UniProt P23975, A477G).
T9 construct: expressed in transfected cells; host or cells: HeLa
T9 sequence (P23975 whole entry A477G): as the sequence (P23975 whole entry L563A) above, with A477G, A563L counted along it
Put plainly: APP+ transport in HeLa cells expressing hNET mutant A477G. Type of assay: cell-based. Particulars: intact HeLa cells, read-out: SAG IC50. The method, then:
as §1, §2, §3, §4

The target of assay [11] is T10, hSERT Y95F (S1 site mutant) (Homo sapiens, UniProt P31645, Y95F).
T10 construct: expressed in transfected cells; host or cells: HeLa (ATCC CCL-2), transient, pcDNA3.1
Description: APP+ transport in HeLa cells expressing hSERT mutant Y95F. It is filed as cell-based. The method, then: as §1, §2, §3, §4

In assay [12] the target is T8, hSERT P561G (S2 site mutant). Description: APP+ transport in HeLa cells expressing hSERT mutant P561G. It is filed as cell-based. Particulars: 2 μM APP+ 5 min, intact HeLa cells, read-out: SAG IC50 for transport. The method, then: as §1, §2, §3, §4
Assay [13] deals with T11, hNET K541G (S2 site mutant) (Homo sapiens, UniProt P23975, K541G).
T11 construct: expressed in transfected cells; host or cells: HeLa
T11 sequence (P23975 whole entry K541G): as the sequence (P23975 whole entry L563A) above, with K541G, A563L counted along it
Put plainly: APP+ transport in HeLa cells expressing hNET mutant K541G. It is filed as cell-based. Particulars: intact HeLa cells, read-out: SAG IC50. How it is done: as §1, §2, §3, §4

In assay [14] the target is T12, hSERT P499G (S2 site mutant) (Homo sapiens, UniProt P31645, P499G).
T12 construct: expressed in transfected cells; host or cells: HeLa (ATCC CCL-2), transient, pcDNA3.1
Put plainly: APP+ transport in HeLa cells expressing hSERT mutant P499G. The note with it: 2 μM APP+ 5 min, intact HeLa cells, read-out: SAG IC50 for transport. It is filed as cell-based. The method, then: as §1, §2, §3, §4

For assay [15], the target named is T13, hSERT F556A (S2 site mutant) (Homo sapiens, UniProt P31645, F556A).
T13 construct: expressed in transfected cells; host or cells: HeLa (ATCC CCL-2), transient, pcDNA3.1
Description: APP+ transport in HeLa cells expressing hSERT mutant F556A. Type of assay: cell-based. The note with it: 2 μM APP+ 5 min, intact HeLa cells, read-out: SAG IC50 for transport. The method, then: as §1, §2, §3, §4

Assay [16] addresses T14, hSERT I327A (S2 site mutant) (Homo sapiens, UniProt P31645, I327A).
T14 construct: expressed in transfected cells; host or cells: HeLa (ATCC CCL-2), transient, pcDNA3.1
Description: APP+ transport in HeLa cells expressing hSERT mutant I327A. Type of assay: cell-based. The note with it: 2 μM APP+ 5 min, intact HeLa cells, read-out: SAG IC50 for transport. How it is done: as §1, §2, §3, §4

Assay [17] addresses T15, hDAT H477Q (S2 site mutant) (Homo sapiens, UniProt Q01959, H477Q).
T15 construct: expressed in transfected cells; host or cells: HeLa
Description: APP+ transport in HeLa cells expressing hDAT mutant H477Q. It is filed as cell-based. Particulars: intact HeLa cells, read-out: SAG IC50. How it is done:
as §1, §2, §3, §4

Assay [18] concerns the target T16, hSERT S559A (S2 site mutant) (Homo sapiens, UniProt P31645, S559A).
T16 construct: expressed in transfected cells; host or cells: HeLa (ATCC CCL-2), transient, pcDNA3.1
Description: APP+ transport in HeLa cells expressing hSERT mutant S559A. Type of assay: cell-based. Particulars: 2 μM APP+ 5 min, intact HeLa cells, read-out: SAG IC50 for transport. How it is done:
as §1, §2, §3, §4

In assay [19] the target is T17, hDAT S422T (S1 site mutant) (Homo sapiens, UniProt Q01959, S422T).
T17 construct: expressed in transfected cells; host or cells: HeLa
T17 sequence (Q01959 whole entry S422T): as the sequence (Q01959 whole entry T566A) above, with S422T, A566T counted along it
Description: APP+ transport in HeLa cells expressing hDAT mutant S422T. It is filed as cell-based. How it is done:
as §1, §2, §3, §4

Assay [20] deals with T18, hNET Q314A (S2 site mutant) (Homo sapiens, UniProt P23975, Q314A).
T18 construct: expressed in transfected cells; host or cells: HeLa
T18 sequence (P23975 whole entry Q314A): as the sequence (P23975 whole entry L563A) above, with Q314A, A563L counted along it
Description: APP+ transport in HeLa cells expressing hNET mutant Q314A. It is filed as cell-based. Particulars: intact HeLa cells, read-out: SAG IC50. How it is done: as §1, §2, §3, §4

T3 sequence (Q01959 whole entry R544G): as the sequence (Q01959 whole entry T566A) above, with R544G, A566T counted along it
T15 sequence (Q01959 whole entry H477Q): as the sequence (Q01959 whole entry T566A) above, with H477Q, A566T counted along it

The IC50 is the concentration that gives 50% inhibition. With “(-)-Syringaresinol-4-O-β-D-apiofuranosyl-(1→2)-β-D-glucopyranoside [SAG]”, the IC50 in assay [1] stood at 10.3 ± 0.49 µM; in [2], 12.5 ± 0.97 µM; in assay [3] (hDAT R544G, intact HeLa cells, read-out: SAG IC50) it was 150 ± 4 µM; in assay [4] it was 304 ± 12 µM; in assay [5] (hDAT T566A, intact HeLa cells, read-out: SAG IC50) it was 136 ± 6 µM; in assay [6], 239 ± 14 µM. Also, the IC50 at WT-hSERT [7] was 7.88 ± 0.35 µM; against WT-hSERT [8] it was 2.54 ± 0.13 µM; in assay [9], more than 1000 µM; in assay [10] it was more than 1000 µM; in [11] (hSERT Y95F (S1), 2 μM APP+ 5 min, intact HeLa cells, read-out: SAG IC50 for transport), 4.45 ± 0.17 µM; in assay [12], more than 1000 µM. The IC50 in assay [13] is 79.8 ± 3.3 µM; in [14], 88.1 ± 2.8 µM; in [15], 41 ± 6.5 µM; in assay [16], 25.5 ± 1.2 µM; in assay [17], 72.4 ± 4.8 µM; in [18], 20.2 ± 1.9 µM. Also, the IC50 in [19] (hDAT S422T (S1), intact HeLa cells, read-out: SAG IC50) amounted to 24.5 ± 1.4 µM; in assay [20], 4.37 ± 1.06 µM. For the same substance, the “Increase in SAG IC50 compared with WT” value in assay [3] (hDAT R544G vs WT-hDAT) and in assay [5] (hDAT T566A vs WT-hDAT) was “less than 10 fold” in each case. For the same substance, the “Effect of mutation on SAG inhibition potency” value is “little effect” in [11] (hSERT Tyr95 to Phe (S1) vs WT-hSERT, APP+ transport) and “little effect” in assay [19] (hDAT S1 residue Ser422 replaced).
